Structures can show the parent of a compound that is named as a salt.
Experiments:
Experiment in all cases: microbe, parasite or virus in culture
Conditions in all cases: for IC50: Influenza A virus, MDCK; for SI: TC50/IC50
[1] = test system: A/hunanzhuhui/1222/2010; format: cell-based, Influenza A virus (H3N2, amantadine-resistant)
[2] = test system: A/liaoningzhenxing/1109/2010; format: cell-based, Influenza A virus (H1N1, oseltamivir-resistant)
[3] = test system: A/fujiantongan/196/2009; format: cell-based, Influenza A virus (H3N2, amantadine-resistant)
[4] = test system: A/tianjinjinnan/15/2009; format: cell-based, Influenza A virus (H1N1, oseltamivir-resistant)

Structure (SMILES) | IC50 [1] [µM] | SI [1] | IC50 [2] [µM] | SI [2] | IC50 [3] [µM] | SI [3] | IC50 [4] [µM] | SI [4]
O=[N+]([O-])c1ccc(CNc2ccc3ncsc3c2)cc1 [N30, N-(4-nitrophenylmethyl) benzothiazole-6-amine] | 1.76 ± 0.24 | 37.89 | 3.43 ± 3.36 | 19.44 | 1.13 ± 0.43 | 59.00 | 1.67 ± 0.49 | 39.92
NC12CC3CC(CC(C3)C1)C2 [AH, amantadine hydrochloride] | 57.2 ± 2.23 |  | 10.13 ± 0.04 |  | 78.8 ± 3.04 |  | 18.2 ± 0.24 | 
NC(=O)c1ncn([C@@H]2O[C@H](CO)[C@@H](O)[C@H]2O)n1 [RBV, Ribavirin] |  |  | 4.92 ± 3.02 |  | 4.42 ± 0.74 |  | 2.54 ± 1.25 | 
CCC(CC)O[C@@H]1C=C(C(=O)O)C[C@H](N)[C@H]1NC(C)=O [OC, oseltamivir carboxylate] | 0.78 ± 0.02 | >64.10 | 3.2 ± 0.21 | >15.58 | 0.28 ± 0.01 | >178.57 | 2.57 ± 0.1 | >19.45

Reference: PMC5353780, “A novel benzo-heterocyclic amine derivative N30 inhibits influenza virus replication by depression of Inosine-5’-Monophospate Dehydrogenase activity” (Virology Journal, 2017)
